Usually EC50 stands for the concentration needed to bring the measured effect to its halfway point.

We go through 20 compounds from patent US6825201B2 (priority 2001, dated 2004).

A value given as a limit tells only on which side of the number the result lay.

The test system of one test is HIV-1 single-round infectious reporter virus. Briefly: microbe, parasite or virus in culture. In kind it is cell-based. The note with it: HeLa CD4 CCR5 cells, single-round HIV-1 reporter virus, MOI 0.01, luciferase read 72 hours after infection; read-out: EC50 Range. The procedure:
Virus infection—Human epithelial cell line, HeLa, expressing the HIV-1 receptors CD4 and CCR5 was propagated in Dulbecco's Modified Eagle Medium (Life Technologies, Gaithersburg, Md.) containing 10% fetal Bovine serum (FBS, Sigma, St. Louis, Mo.) and supplemented with 0.2 mg/ml Geneticin (Life Technologies, Gaithersburg, Md.) and 0.4 mg/ml Zeocin (Invitrogen, Carlsbad, Calif.).
Transfections were performed using lipofectAMINE PLUS reagent as described by the manufacturer (Life Technologies, Gaithersburg, Md.).
1. Compound was added to HeLa CD4 CCR5 cells plated in 96 well plates at a cell density of 5×10^4 cells per well in 100 μl Dulbecco's Modified Eagle Medium containing 10% fetal Bovine serum at a concentration of <20 μM.
2. 100 μl of single-round infectious reporter virus in Dulbecco's Modified Eagle Medium was then added to the plated cells and compound at an approximate multiplicity of infection (MOI) of 0.01, resulting in a final volume of 200 μl per well and a final compound concentration of <10 μM.
3. Samples were harvested 72 hours after infection.
4. Viral infection was monitored by measuring luciferase expression from viral DNA in the infected cells using a luciferase reporter gene assay kit (Roche Molecular Biochemicals, Indianapolis, Ind.). Infected cell supernatants were removed and 50 μl of Dulbecco's Modified Eagle Medium (without phenol red) and 50 μl of luciferase assay reagent reconstituted as described by the manufacturer (Roche Molecular Biochemicals, Indianapolis, Ind.) was added per well. Luciferase activity was then quantified by measuring luminescence using a Wallac microbeta scintillation counter.
5. An EC50 provides a method for comparing the antiviral potency of the compounds of this invention. The effective concentration for fifty percent inhibition (EC50) was calculated with the Microsoft Excel Xlfit curve fitting software.
Take “N-(benzoyl)-N′-[(4-fluorol-indolin-3-yl)-acetyl]-piperazine [Example 21]”: the concentration giving a half-maximal response (EC50) was less than 1 µM.

Staying with this test, now noted: Human immunodeficiency virus 1, HeLa-CD4/CCR5, 72 h, read-out: EC50 Range.
On to `COc1ccc2cc(C(=O)C(C#N)N3CCN(C(=O)c4ccccc4)CC3C)[nH]c2c1` (centres unmarked) [Example 2], for which the 50% effective concentration (EC50) is less than 1 µM.
Same read-out and setting: to `COc1cccc2occ(C(=O)C(C#N)N3CCN(C(=O)c4ccccc4)CC3)c12` (centres unmarked) [Example 3] belongs less than 1 µM; to `O=C(C(=O)N1CCN(C(=O)c2ccccc2)CC1)c1cc2ccccc2[nH]1` [Example 5, 1-(benzoyl)-4-[(indol-2-yl)-2-oxoacetyl]piperazine], less than 1 µM; to `COc1cccc2occ(C(=O)C(=O)N3CCN(C(=O)c4ccccc4)CC3)c12` [Example 6], greater than 0.5 µM.
Same read-out and setting: to `CC1CN(C(=O)c2ccccc2)CCN1C(=O)C(=O)c1cc2cc(F)ccc2[nH]1` (centres unmarked) [Example 8] belongs less than 1 µM; to `CC1CN(C(=O)c2ccccc2)CCN1C(=O)C(=O)c1cc2cc(Cl)ccc2[nH]1` (centres unmarked) [Example 9], less than 1 µM; to `COc1c(C(=O)C(=O)N2CCN(C(=O)c3ccccc3)CC2)cnc2c1c(C)nn2C` [Example 10], 1 to 5 µM.
In the case of `COc1c(C(=O)C(=O)N2CCN(C(=O)c3ccccc3)CC2C)cnc2c1c(C)nn2C` (centres unmarked) [Example 12], the concentration giving a half-maximal response (EC50) was in the range of 1 to 5 µM.
Same read-out and setting: then `CCCCNc1c(C(=O)C(=O)N2CCN(C(=O)c3ccccc3)CC2C)cnc2c1cnn2CC` (centres unmarked) [Example 13], with less than 1 µM; and `CCCCNc1c(C(=O)C(=O)N2CCN(C(=O)c3ccccc3)CC2)cnc2c1cnn2CC` [Example 14], with greater than 5 µM.
On the same count and under the same terms, then `O=C(C(=O)N1CCN(C(=O)c2ccccc2)CC1)c1csc2ccccc12` [Example 18, 1-(benzoyl)-4-[(benzothiophen-3-yl)-2-oxoacetyl]piperazine], with 1 to 5 µM; and `O=C(C(=O)N1CCN(C(=O)c2ccccc2)CC1)c1cc2ccccc2s1` [Example 19, 1-(benzoyl)-4-[(benzothiophen-2-yl)-2-oxoacetyl]piperazine], with 1 to 5 µM.
For the compound `O=C(C(=O)N1CCN(C(=O)c2ccccc2)CC1)c1cccc2[nH]ccc12` [Example 22, 1-(4-benzoyl-piperazin-1-yl)-2-(1H-indol-4-yl)-ethane-1,2-dione], the EC50 was less than 1 µM.
Same read-out and setting: then `COc1ccc(-c2nc(C)n[nH]2)c2[nH]cc(C(=O)N3CCN(C(=O)c4ccccc4)CC3)c12` [Example 26], with 1 to 5 µM.
The same measure, in the same setting: to `COc1ccc(C#N)c2[nH]cc(C(=O)N3CCN(C(=O)c4ccccc4)CC3)c12` [Example 27] belongs greater than 0.5 µM; to `COc1ccc(C#N)c2[nH]cc(C(=O)N3CCN(C(=O)c4ccccc4)C[C@H]3C)c12` [Example 28], greater than 0.5 µM; to `O=C(c1ccccc1)N1CCN(C(=O)c2c[nH]c3cccc(F)c23)CC1` [Example 29], less than 1 µM.
For the compound `CNC(=O)c1ccc(F)c2c(CC(=O)N3CCN(C(=O)c4ccccc4)CC3)c[nH]c12` [Example 31, 3-[2-(4-Benzoyl-piperazin-1-yl)-2-oxo-ethyl]-4-fluoro-1H-indole-7-carboxylic acid methylamide], the EC50 was in the range of 1 to 5 µM.
The same measure, in the same setting: then `CNC(=O)c1ccc(F)c2c(C(O)C(=O)N3CCN(C(=O)c4ccccc4)CC3)c[nH]c12` (centres unmarked) [Example 32, 3-[2-(4-Benzoyl-piperazin-1-yl)-1-hydroxy-2-oxo-ethyl]-4-fluoro-1H-indole-7-carboxylic acid methylamide], with less than 1 µM.
